Results published in the supplement of paper PMC10307832.

Compound: Cn1nnc2c(C(N)=O)ncn2c1=O [Temozolomide] + Cc1cc(Nc2cc(N3CCN(C)CC3)nc(Sc3ccc(NC(=O)C4CC4)cc3)n2)n[nH]1 [Tozasertib] (partner 0.1 µM)
Test: relative viability (nuclei count vs DMSO), 5 days (fraction); higher = more cells survive
Conditions: first compound 0.2 µM
Procedure, shortened: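 The day after seeding in 1536-well plates, lung cancer cell lines were treated by pin tool with a single drug, or with a fixed anchor-drug dose together with five library-drug doses (not always all listed) in √10 steps. After 5 days, a combined fix-and-stain solution (final 0.05% Triton X-100, 1% formaldehyde, 1 ug/ml Hoechst) was added. Nuclei counted on 4× images gave relative viability as treated counts over vehicle counts, reported as the median of duplicate plates.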

Point of comparison: UMC-11, relative viability 0.204. Against it:
- NCI-H1734 — higher, 0.305
- NCI-H1755 — higher, 0.579
- NCI-H1915 — higher, 0.482
- NCI-H1944 — higher, 0.241
- NCI-H1975 — higher, 0.975
- NCI-H1993 — higher, 0.566
- NCI-H2009 — higher, 0.821
- NCI-H2023 — higher, 0.427
- NCI-H2085 — higher, 0.735
- NCI-H2087 — higher, 0.273
- NCI-H2126 — higher, 0.767
- NCI-H2228 — higher, 0.246
- NCI-H2342 — higher, 0.49
- NCI-H2347 — higher, 0.496
- NCI-H2405 — higher, 0.716
- NCI-H3122 — higher, 0.257
- PC-3 [JPC-3] — higher, 0.935
- PC-14 — higher, 0.439
- RERF-LC-KJ — higher, 0.535
- SK-LU-1 — higher, 0.354
- SK-MES-1 — higher, 1.02
- SW 900 — higher, 0.63
- SW 1573 — higher, 0.298

Same assay, conditions: first compound 0.6325 µM

Point of comparison: SW 1573, relative viability 0.177. Against it:
- NCI-H650 — higher, 0.771
- NCI-H661 — higher, 0.351
- NCI-H727 — higher, 0.629
- NCI-H838 — higher, 0.286
- NCI-H1355 — higher, 0.612
- NCI-H1395 — higher, 0.692
- NCI-H1437 — higher, 0.415
- NCI-H1650 — higher, 0.441
- NCI-H1651 — higher, 0.779
- NCI-H1666 — higher, 0.589
- NCI-H1734 — higher, 0.251
- NCI-H1755 — higher, 0.549
- NCI-H1793 — higher, 0.31
- NCI-H1915 — higher, 0.417
- NCI-H1944 — higher, 0.273
- NCI-H1975 — higher, 0.718
- NCI-H1993 — higher, 0.618
- NCI-H2009 — higher, 0.722
- NCI-H2023 — higher, 0.361
- NCI-H2085 — higher, 0.784
- NCI-H2087 — higher, 0.219
- NCI-H2126 — higher, 0.864
- NCI-H2170 — higher, 0.75
- NCI-H2228 — higher, 0.322
- NCI-H2342 — higher, 0.57
- NCI-H2347 — higher, 0.552
- NCI-H2405 — higher, 0.722
- NCI-H3122 — higher, 0.482
- PC-3 [JPC-3] — higher, 0.945
- PC-14 — higher, 0.608
- RERF-LC-KJ — higher, 0.465
- SK-LU-1 — higher, 0.326
- SK-MES-1 — higher, 0.919
- SW 900 — higher, 0.703
- UMC-11 — higher, 0.198

Same assay, conditions: first compound 2 µM

Point of comparison: NCI-H2126, relative viability 0.909. Against it:
- NCI-H650 — lower, 0.735
- NCI-H661 — lower, 0.352
- NCI-H727 — lower, 0.764
- NCI-H838 — lower, 0.309
- NCI-H1355 — lower, 0.66
- NCI-H1395 — lower, 0.813
- NCI-H1437 — lower, 0.422
- NCI-H1650 — lower, 0.424
- NCI-H1651 — lower, 0.674
- NCI-H1666 — lower, 0.631
- NCI-H1734 — lower, 0.242
- NCI-H1755 — lower, 0.58
- NCI-H1793 — lower, 0.45
- NCI-H1915 — lower, 0.471
- NCI-H1944 — lower, 0.327
- NCI-H1975 — lower, 0.823
- NCI-H1993 — lower, 0.616
- NCI-H2009 — lower, 0.766
- NCI-H2023 — lower, 0.344
- NCI-H2085 — lower, 0.86
- NCI-H2087 — lower, 0.292
- NCI-H2170 — lower, 0.756
- NCI-H2228 — lower, 0.206
- NCI-H2342 — lower, 0.492
- NCI-H2347 — lower, 0.579
- NCI-H2405 — lower, 0.791
- NCI-H3122 — lower, 0.47
- PC-3 [JPC-3] — higher, 0.934
- PC-14 — lower, 0.558
- RERF-LC-KJ — lower, 0.538
- SK-LU-1 — lower, 0.335
- SK-MES-1 — higher, 0.985
- SW 900 — lower, 0.498
- SW 1573 — lower, 0.162
- UMC-11 — lower, 0.214

Same assay, conditions: first compound 6.325 µM

Point of comparison: NCI-H661, relative viability 0.362. Against it:
- NCI-H650 — higher, 0.681
- NCI-H727 — higher, 0.591
- NCI-H838 — lower, 0.264
- NCI-H1355 — higher, 0.548
- NCI-H1395 — higher, 0.677
- NCI-H1437 — higher, 0.422
- NCI-H1650 — lower, 0.353
- NCI-H1651 — higher, 0.684
- NCI-H1666 — higher, 0.531
- NCI-H1734 — lower, 0.284
- NCI-H1755 — higher, 0.594
- NCI-H1793 — lower, 0.325
- NCI-H1915 — lower, 0.317
- NCI-H1944 — lower, 0.284
- NCI-H1975 — higher, 0.699
- NCI-H1993 — higher, 0.577
- NCI-H2009 — higher, 0.762
- NCI-H2023 — lower, 0.359
- NCI-H2085 — higher, 0.817
- NCI-H2087 — lower, 0.286
- NCI-H2126 — higher, 0.782
- NCI-H2170 — higher, 0.668
- NCI-H2228 — lower, 0.212
- NCI-H2342 — higher, 0.598
- NCI-H2347 — higher, 0.544
- NCI-H2405 — higher, 0.72
- NCI-H3122 — lower, 0.356
- PC-3 [JPC-3] — higher, 0.901
- PC-14 — lower, 0.293
- RERF-LC-KJ — higher, 0.504
- SK-LU-1 — lower, 0.273
- SK-MES-1 — higher, 0.939
- SW 900 — higher, 0.542
- SW 1573 — lower, 0.207
- UMC-11 — lower, 0.198

Same assay, conditions: first compound 20 µM

Point of comparison: NCI-H2009, relative viability 0.735. Against it:
- NCI-H650 — higher, 0.804
- NCI-H661 — lower, 0.337
- NCI-H727 — lower, 0.531
- NCI-H838 — lower, 0.254
- NCI-H1355 — lower, 0.553
- NCI-H1395 — lower, 0.705
- NCI-H1437 — lower, 0.415
- NCI-H1650 — lower, 0.461
- NCI-H1651 — lower, 0.684
- NCI-H1666 — lower, 0.5
- NCI-H1734 — lower, 0.278
- NCI-H1755 — lower, 0.528
- NCI-H1793 — lower, 0.301
- NCI-H1915 — lower, 0.268
- NCI-H1944 — lower, 0.257
- NCI-H1975 — higher, 0.737
- NCI-H1993 — lower, 0.639
